The text below walks through data of ChEMBL document CHEMBL3045627, “Effect of allylisothiocyanate on Sitophilus oryzae, Tribolium confusum and Plodia interpunctella: Toxicity and effect on insect mitochondria” (2012).

SMILES strings stand for the structures. Activity calls are given as the source filed them. The calls are words filed in the database; no cut-off is given here.

In assay [1] the test system is Plodia interpunctella. The assay is described as follows: Insecticidal activity against larvae of Plodia interpunctella (Indian meal moth ) in wheat grain assessed as mortality at 85% EC wettable formulation applied as fumes for 72 hr measured after 7 days by fumigation bioassay. In kind it is functional.
Assay [2] deals with Sitophilus oryzae. The assay is described as follows: Insecticidal activity against adult Sitophilus oryzae (rice weevil) in wheat grain assessed as mortality at 4.3 microl/L air at 85% EC formulation applied as fumes for 72 hr measured after 7 days by fumigation bioassay. In kind it is functional.
For assay [3], the system named is Tribolium confusum. Nature of the assay: Insecticidal activity against larvae of Tribolium confusum (confused flour beetle) in broken wheat assessed as mortality at 85% EC dry formulation applied as fumes for 24 hr measured after 14 days by fumigation bioassay. In kind it is functional.
For assay [4], the system named is Tribolium confusum. The assay is described as follows: Insecticidal activity against adult Tribolium confusum (confused flour beetle) in broken wheat assessed as mortality at 4.3 microl/L air at 85% EC formulation applied as fumes for 72 hr measured after 14 days by fumigation bioassay. In kind it is functional.
Assay [5] concerns Tribolium confusum. The assay is described as follows: Insecticidal activity against adult Tribolium confusum (confused flour beetle) in broken wheat assessed as mortality at 11.3 microl/L air at 85% EC formulation applied as fumes for 72 hr measured after 14 days by fumigation bioassay. In kind it is functional.
For assay [6], the system named is Sitophilus oryzae. The assay is described as follows: Insecticidal activity against adult Sitophilus oryzae (rice weevil) in wheat grain assessed as mortality at 85% EC dry formulation applied as fumes for 72 hr measured after 7 days by fumigation bioassay. In kind it is functional.
Assay [7] concerns Tribolium confusum. Nature of the assay: Insecticidal activity against adult Tribolium confusum (confused flour beetle) in broken wheat assessed as mortality at 9.4 microl/L air at 85% EC formulation applied as fumes for 72 hr measured after 14 days by fumigation bioassay. In kind it is functional.
Assay [8] relates to Tribolium confusum. The assay is described as follows: Insecticidal activity against third-instar larval stage of Tribolium confusum (confused flour beetle) assessed as enlarged mitochondria with reduced quantity of cristae, lower electron dense matrix, vacuolization and rarefaction of mitochondrial matrix in the epithelial cells of epidermal layer in the integument at LC20 applied as fumes measured after 24 hr by electron microscopic analysis. The following applies: Epithelial cell. In kind it is functional, organism-based.

The test system of assay [9] is Tribolium confusum. Nature of the assay: Insecticidal activity against larvae of Tribolium confusum (confused flour beetle) in broken wheat assessed as mortality at 9.4 microl/L air at 85% EC formulation applied as fumes for 72 hr measured after 14 days by fumigation bioassay. In kind it is functional.
For assay [10], the system named is Tribolium confusum. Nature of the assay: Insecticidal activity against third-instar larval stage of Tribolium confusum (confused flour beetle) assessed as numerous mitochondria with few cristae, reduced electron density, matrix rarefaction and vacuolization of the mitochondrial matrix in regenerative nidi cells of the midgut at LC20 applied as fumes measured after 24 hr by electron microscopic analysis. In kind it is functional, organism-based.

In assay [11] the test system is Sitophilus oryzae. The assay is described as follows: Insecticidal activity against adult Sitophilus oryzae (rice weevil) in wheat grain assessed as mortality at 85% EC wettable formulation applied as fumes for 24 hr measured after 7 days by fumigation bioassay. In kind it is functional.
Assay [12] has as its system Tribolium confusum. Nature of the assay: Insecticidal activity against third-instar larval stage of Tribolium confusum (confused flour beetle) assessed as morphological changes in anterior, posterior and middle regions of midgut with attatched malphigian tubules applied as vapours measured after 24 hr by light microscopy. In kind it is functional, organism-based.
The test system of assay [13] is Tribolium confusum. The assay is described as follows: Insecticidal activity against larvae of Tribolium confusum (confused flour beetle) in broken wheat assessed as mortality at 11.3 microl/L air at 85% EC formulation applied as fumes for 72 hr measured after 14 days by fumigation bioassay. In kind it is functional.
For assay [14], the system named is Plodia interpunctella. Nature of the assay: Insecticidal activity against larvae of Plodia interpunctella (Indian meal moth ) in wheat grain assessed as mortality at 85% EC dry formulation applied as fumes for 72 hr measured after 7 days by fumigation bioassay. In kind it is functional.
Assay [15] deals with Sitophilus oryzae. The assay is described as follows: Insecticidal activity against adult Sitophilus oryzae (rice weevil) in wheat grain assessed as mortality at 11.3 microl/L air at 85% EC formulation applied as fumes for 72 hr measured after 7 days by fumigation bioassay. In kind it is functional.
Assay [16] relates to Tribolium confusum. The assay is described as follows: Insecticidal activity against larvae of Tribolium confusum (confused flour beetle) in broken wheat assessed as mortality at 85% EC wettable formulation applied as fumes for 72 hr measured after 14 days by fumigation bioassay. In kind it is functional.
Assay [17] concerns Tribolium confusum. The assay is described as follows: Insecticidal activity against larvae of Tribolium confusum (confused flour beetle) in broken wheat assessed as mortality at 4.3 microl/L air at 85% EC formulation applied as fumes for 72 hr measured after 14 days by fumigation bioassay. In kind it is functional.
Assay [18] concerns Tribolium confusum. Nature of the assay: Insecticidal activity against third-instar larval stage of Tribolium confusum (confused flour beetle) assessed as change in the integument colour to dark in the middle area with slight effect toward both ends applied as vapour measured after 24 hr by light microscopic analysis. In kind it is functional, organism-based.
For assay [19], the system named is Tribolium confusum. The assay is described as follows: Insecticidal activity against adult Tribolium confusum (confused flour beetle) in broken wheat assessed as mortality at 85% EC dry formulation applied as fumes for 24 hr measured after 14 days by fumigation bioassay. In kind it is functional.
For assay [20], the system named is Sitophilus oryzae. Nature of the assay: Insecticidal activity against adult Sitophilus oryzae (rice weevil) in wheat grain assessed as mortality at 9.4 microl/L air at 85% EC formulation applied as fumes for 72 hr measured after 7 days by fumigation bioassay. In kind it is functional.
For assay [21], the system named is Tribolium confusum. Nature of the assay: Insecticidal activity against adult Tribolium confusum (confused flour beetle) in broken wheat assessed as mortality at 85% EC dry formulation applied as fumes for 72 hr measured after 14 days by fumigation bioassay. In kind it is functional.
Assay [22] deals with Tribolium confusum. The assay is described as follows: Insecticidal activity against adult Tribolium confusum (confused flour beetle) in broken wheat assessed as mortality at 85% EC wettable formulation applied as fumes for 24 hr measured after 14 days by fumigation bioassay. In kind it is functional.
Assay [23] concerns Sitophilus oryzae. Nature of the assay: Insecticidal activity against adult Sitophilus oryzae (rice weevil) in wheat grain assessed as mortality at 85% EC wettable formulation fumigated for 72 hr applied as fumes after 7 days by fumigation bioassay. In kind it is functional.
The test system of assay [24] is Tribolium confusum. Nature of the assay: Insecticidal activity against larvae of Tribolium confusum (confused flour beetle) in broken wheat assessed as mortality at 85% EC dry formulation applied as fumes for 72 hr measured after 14 days by fumigation bioassay. In kind it is functional.
Assay [25] has as its system Tribolium confusum. Nature of the assay: Insecticidal activity against third-instar larval stage of Tribolium confusum (confused flour beetle) assessed as vacuolization of mitochondrial matrix, nucleus with well distributed chromatin, enlarged mitochondria with few cristae, reduced electron density, matrix rarefaction in the epithelial cells of epidermal layer in the integument at LC50 applied as fumes measured after 24 hr by electron microscopic analysis. In kind it is functional, organism-based. The following applies: Epithelial cell.

Assay [26] deals with Tribolium confusum. The assay is described as follows: Insecticidal activity against adult Tribolium confusum (confused flour beetle) in broken wheat assessed as mortality at 85% EC wettable formulation applied as fumes for 72 hr measured after 14 days by fumigation bioassay. In kind it is functional.
For assay [27], the system named is Tribolium confusum. Nature of the assay: Insecticidal activity against third-instar larval stage of Tribolium confusum (confused flour beetle) assessed as numerous mitochondria with few cristae, reduced electron density, matrix rarefaction and vacuolization of the mitochondrial matrix in columnar cells of the midgut at LC20 applied as fumes measured after 24 hr by electron microscopic analysis. In kind it is functional, organism-based.

The test system of assay [28] is Tribolium confusum. The assay is described as follows: Insecticidal activity against larvae of Tribolium confusum (confused flour beetle) in broken wheat assessed as mortality at 85% EC wettable formulation applied as fumes for 24 hr measured after 14 days by fumigation bioassay. In kind it is functional.
Assay [29] has as its system Sitophilus oryzae. The assay is described as follows: Insecticidal activity against adult Sitophilus oryzae (rice weevil) in wheat grain assessed as mortality at 85% EC dry formulation applied as fumes for 24 hr measured after 7 days by fumigation bioassay. In kind it is functional.
For assay [30], the system named is Plodia interpunctella. The assay is described as follows: Insecticidal activity against larvae of Plodia interpunctella (Indian meal moth ) in wheat grain assessed as mortality at 85% EC dry formulation applied as fumes for 24 hr measured after 7 days by fumigation bioassay. In kind it is functional.
Assay [31] concerns Plodia interpunctella. Nature of the assay: Insecticidal activity against larvae of Plodia interpunctella (Indian meal moth ) in wheat grain assessed as mortality at 85% EC wettable formulation applied as fumes for 24 hr measured after 7 days by fumigation bioassay. In kind it is functional.
Assay [32] has as its system Sitophilus oryzae. The assay is described as follows: whole plant or invertebrate. The following applies: in Triticum aestivum.
Assay [33] relates to Tribolium confusum. The assay is described as follows: Insecticidal activity against adult Tribolium confusum (confused flour beetle) in broken wheat assessed as mortality at 5 mg/l applied as fumes for 72 hr measured after 14 days by fumigation bioassay. The conditions noted are these: in Triticum aestivum.
For assay [34], the system named is Tribolium confusum. Nature of the assay: Insecticidal activity against larvae of Tribolium confusum (confused flour beetle) in broken wheat assessed as mortality at 5 mg/l applied as fumes for 72 hr measured after 14 days by fumigation bioassay. The following applies: in Triticum aestivum.

As usually defined, the mortality is the percentage killed. With `C=CCN=C=S` [ALLYL ISOTHIOCYANATE], the LC50 is listed as 2.3 uL/L in [1]; 7.3 uL/L in assay [3]; 2 uL/L in assay [6]; 2.7 uL/L in assay [11]; 2.2 uL/L in assay [14]; 5.5 uL/L in assay [16]. The LC50 is 4.7 uL/L in assay [19]; 3.7 uL/L in [21]; 5.5 uL/L in [22]; 2.2 uL/L in [23]; 4.7 uL/L in [24]; 4.2 uL/L in assay [26]. Further, the LC50 in assay [28] was determined as 7.1 uL/L; in assay [29] it was 2.6 uL/L; in [30], 3.5 uL/L; in [31], 3.7 uL/L. The LC95 is recorded as 5 uL/L in [1]; 3.4 uL/L in [6]; 4.2 uL/L in assay [11]; 4.1 uL/L in assay [14]; 9.9 uL/L in [16]; 9.3 uL/L in assay [19]. In addition, the LC95 in [21] is reported as 6.6 uL/L; in assay [22], 12.8 uL/L; in assay [23] it was 3.7 uL/L; in assay [24], 9.5 uL/L; in assay [26], 7.8 uL/L; in assay [29], 4.7 uL/L. Moreover, the LC95 is given as 7.7 uL/L in [30] and 8.7 uL/L in [31]. Moreover, the mortality worked out at 100% in [2]; 70% in assay [4]; 100% in [5]; 100% in [7]; 93% in assay [9]; 100% in assay [13]. Further, the figures for the mortality in [15], in [17] and in assay [20] were 100%, 48% and 100%, respectively. Moreover, the result in assay [8], in [10], in assay [12], in [18], in assay [25] and in [27] was Active.
Take `P` [PHOSPHINE]: the mortality at 5 µg/mL in assay [32], in assay [33] and in assay [34] was 100% in each case.
